The record followed here is US9682928B2 (NeuroPro Therapeutics, Inc., priority 2009, dated 2017).

The target in one experiment is T1, Na+K+Cl− co-transporter (Rattus norvegicus, UniProt E9PTX9).
T1 construct: endogenous in cells; host or cells: A7r5 cells
T1 sequence (E9PTX9 1-1203): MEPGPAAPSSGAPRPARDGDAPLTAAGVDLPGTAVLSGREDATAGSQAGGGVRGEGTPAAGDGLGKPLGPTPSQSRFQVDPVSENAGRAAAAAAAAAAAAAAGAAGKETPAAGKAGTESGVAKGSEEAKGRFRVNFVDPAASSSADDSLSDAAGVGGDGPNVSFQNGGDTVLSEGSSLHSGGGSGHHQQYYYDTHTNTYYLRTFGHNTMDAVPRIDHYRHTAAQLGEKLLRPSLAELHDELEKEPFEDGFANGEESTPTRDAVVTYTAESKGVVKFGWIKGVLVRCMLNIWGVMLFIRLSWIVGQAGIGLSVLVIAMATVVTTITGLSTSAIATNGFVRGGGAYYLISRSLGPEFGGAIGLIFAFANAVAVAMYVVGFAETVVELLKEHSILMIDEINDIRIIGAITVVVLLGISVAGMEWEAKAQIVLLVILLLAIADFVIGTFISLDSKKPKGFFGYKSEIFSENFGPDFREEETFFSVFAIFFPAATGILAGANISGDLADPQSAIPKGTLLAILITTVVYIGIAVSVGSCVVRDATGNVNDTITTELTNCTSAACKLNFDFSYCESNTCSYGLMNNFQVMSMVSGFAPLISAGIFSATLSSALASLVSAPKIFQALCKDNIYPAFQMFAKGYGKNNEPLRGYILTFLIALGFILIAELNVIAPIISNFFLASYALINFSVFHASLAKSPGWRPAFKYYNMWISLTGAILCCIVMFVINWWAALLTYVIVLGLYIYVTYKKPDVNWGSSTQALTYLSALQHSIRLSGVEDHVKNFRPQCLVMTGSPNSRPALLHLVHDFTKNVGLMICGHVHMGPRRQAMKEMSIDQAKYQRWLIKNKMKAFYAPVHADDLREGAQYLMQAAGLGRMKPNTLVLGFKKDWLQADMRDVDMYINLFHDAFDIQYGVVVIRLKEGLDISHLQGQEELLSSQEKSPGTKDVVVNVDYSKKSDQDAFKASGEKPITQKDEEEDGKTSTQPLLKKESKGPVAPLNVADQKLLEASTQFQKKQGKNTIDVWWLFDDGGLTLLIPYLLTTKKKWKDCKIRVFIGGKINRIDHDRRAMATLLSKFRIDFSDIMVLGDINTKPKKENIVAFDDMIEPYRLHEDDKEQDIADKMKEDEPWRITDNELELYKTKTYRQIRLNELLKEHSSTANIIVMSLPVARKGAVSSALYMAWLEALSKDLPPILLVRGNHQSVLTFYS
Description: Na+K+Cl− cotransporter assay, 86Rb uptake in A7r5 cells. The experiment is classed as cell-based. Particulars: 10 minutes at 37° C.; for inhibition at 10 µM: read-out: % Inhibition of Control Values; for remaining activity at 10 µM: read-out: % of Control Value. How it is done:
Na^+K^+Cl^− co-transporter activity was measured in vitro in A7r5 cells by measuring their uptake of ^86Rb (0.2 μCi) in 10 minutes at 37° C. as detected by scintillation counting. See Chassande, et al. (1988) “The Na^+/K^+/Cl^− Cotransport in C6 glioma cells. Properties and role in volume regulation.” Eur. J. Biochem. 171: 425433.

The test system of the next experiment is male Sprague Dawley rats. As to the kind of experiment: Taxol-induced peripheral neuropathy (rat), mechanical allodynia (von Frey). The experiment is classed as in vivo. Particulars: for Pain relief as measured by mechanical allodynia: rat, IP, Day 32, 75 mg/kg (NTP-2014, NTP-2026). From the text:
In this study, an animal model of Taxol-induced sensory neuropathy was employed to evaluate the effects of the sponsor's test compounds, for response to tactile sensitivity using von Frey test of mechanical allodynia. […] Therefore, Taxol-induced mechanical allodynia was employed as the measured behavioral endpoint.
The test substance was homogenized and dispersed using a mortar and a pestle in 0.2% hydroxypropylmethylcellulose (HPMC) in physiological saline, which served as the vehicle. Test articles were administered intraperitoneally in dose volumes of 10 mL/kg body weight. Preparations were made freshly for each day of administration.
Prior to test article NTP-2024 and vehicle control group administration, rats were pretreated at 30 minutes and again at 10 minutes prior to test article administration with a general metabolic inhibitor, piperonyl butoxide (150 mg/kg i.p.) in DMSO, at a volume of 1 mL/kg.
The reference article, Gabapentin, was formulated in saline to a concentration of 100 mg/mL and delivered […] at a dose volume of 1 mL/kg body weight (for a dosing concentration of 100 mg/kg).
All animals were administered Taxol, 2 mg/kg, IP at a dose volume of 1 mL/kg, on Days 1, 3, 5 and 7.
On Day 32, all animals received a single intraperitoneal injection of test article or vehicle according to Tables 1 and 2. For group 1 (vehicle), rats were pre-treated with Piperonyl butoxide (150 mg/kg IP, dose volume of 1 mL/kg) at 30 minutes and again at 10 minutes prior to vehicle administration. Four animals in group 3 (NTP-2024) were also pre-treated with Piperonyl butoxide (150 mg/kg IP, dose volume of 1 mL/kg) at 30 minutes and again at 10 minutes prior to vehicle administration. Animals in Groups 2, 3, 4, & 5 were pre-treated with Saline (dose volume of 1 mL/kg, IP) at 30 minutes and again at 10 minutes prior to test article administration. With the exception of animals in group 2, the animals received an IP injection of vehicle or test article 30 min prior to mechanical allodynia testing. Animals were dosed at a volume of 10 mL/kg.
Animals in group 2, received an IP injection of Gabapentin 90 minutes prior to mechanical allodynia testing. Animals were dosed at a volume of 1 mL/kg.
All animals underwent von Frey testing for mechanical allodynia. On testing days, the animals were returned to the chambers and allowed approximately 15 minutes to explore their surroundings prior to testing. A series of filaments were applied to the left hind paw. A 2.0 g filament was first applied to the plantar surface, if the animal responded to the filament (by lifting its paw) then the next smaller filament was applied. […] This is repeated in an “Up down” method for four responses after the first initial change in response.
The original study design used thermal hyperalgesia as the main parameter for testing the ability of the test compounds to ameliorate the pain associated with the Taxol injection. The treatment inclusion was set at a 20% drop from baseline values as determined on Day 28. […] The study design was amended to use mechanical allodynia as the testing parameter. […] This changed the testing days from Day 28 to Day 31 for allodynia confirmation and Day 29 to Day 32 for testing the article efficacy. Additional animals were received to complete the group size designation. These animals were tested for mechanical allodynia only. The study was then further amended to remove the piperonyl butoxide as a pre-treatment for Group 3 (NTP-2024). […] Because this study was conducted in two portions, four (4) animals from Group 3 received the metabolic inhibitor and five (5) received Saline as a pre-treatment.
The group mean results were analyzed versus the vehicle control group using a two way ANOVA, followed by a Bonferroni post-hoc test. Individual groups were tested pre and post dose using a paired t-test.

Entries after “also recorded” stand apart in the source; their conditions may differ.

As to `CCCCNc1cc(C(=O)O)cc(S(N)(=O)=O)c1Oc1ccccc1` [Bumetanide, reference compound], on Na+K+Cl− co-transporter, the inhibition (as a rule, the drop in the measured response relative to a control, in per cent) at 10 µM came to 76% and the remaining activity at 10 µM is 24%.
On to `CCCCN(CCCC)c1cc(C(=O)O)cc(S(N)(=O)=O)c1Oc1ccccc1` [NTP-2014, 3-Aminosulfonyl-5-N,N-dibutylamino-4-phenoxybenzoic acid], for which, in the experiment with male Sprague Dawley rats (75 mg/kg), the “Activity compared to GBP at 100 mg/kg” value was “mechanical allodynia-equal to if not better activity” and the “Pain relief as measured by mechanical allodynia” value is “significant improvement in allodynia; also recorded: significant treatment effect; also recorded: effective analgesic effects”. Further, at Na+K+Cl− co-transporter, the inhibition at 10 µM was -4% and the remaining activity at 10 µM was determined as 104%.
Take `CCCCNc1cc(C(=O)NN2CCOCC2)cc(S(N)(=O)=O)c1Oc1ccccc1` [NTP-2024, N-Morpholinyl 3-Aminosulfonyl-5-N-butylamino-4-phenoxybenzamide]: the Mean allodynia score in the experiment with male Sprague Dawley rats (metabolic inhibitor pre-treatment removed) amounted to 8.04 g. The Mean allodynia score with male Sprague Dawley rats (pre-treated with the metabolic inhibitor (PBx)) worked out at 14.92 g. Also, at Na+K+Cl− co-transporter (10 μM), the “% Inhibition of Control Values” came to 20% and the “% of Control Value” was found to be 80.2%.
As to `CCCCNc1cc(C(=O)N(C)CCCN(C)C)cc(S(N)(=O)=O)c1Oc1ccccc1` [NTP-2026, N-(3-(Dimethylamino)propyl)-N-methyl 3-Aminosulfonyl-5-N-butylamino-4-phenoxybenzamide], the “Animals with complete reversal of allodynia” value with male Sprague Dawley rats (group of nine rats) is “Three of the nine animals”. Further, in the experiment on male Sprague Dawley rats (75 mg/kg), the “Pain relief as measured by mechanical allodynia” value is “slight improvement; also recorded: Several animals demonstrated complete responses”.
